We go through 6 molecules from paper PMC10709440, “High-throughput ligand profile characterization in novel cell lines expressing seven heterologous insect olfactory receptors for the detection of volatile plant biomarkers” (Scientific Reports, 2023).

One assay deals with T1, Drosophila OR10a (Drosophila melanogaster, UniProt Q9VYZ1).
T1 construct: expressed in transfected cells
T1 sequence (Q9VYZ1 1-406): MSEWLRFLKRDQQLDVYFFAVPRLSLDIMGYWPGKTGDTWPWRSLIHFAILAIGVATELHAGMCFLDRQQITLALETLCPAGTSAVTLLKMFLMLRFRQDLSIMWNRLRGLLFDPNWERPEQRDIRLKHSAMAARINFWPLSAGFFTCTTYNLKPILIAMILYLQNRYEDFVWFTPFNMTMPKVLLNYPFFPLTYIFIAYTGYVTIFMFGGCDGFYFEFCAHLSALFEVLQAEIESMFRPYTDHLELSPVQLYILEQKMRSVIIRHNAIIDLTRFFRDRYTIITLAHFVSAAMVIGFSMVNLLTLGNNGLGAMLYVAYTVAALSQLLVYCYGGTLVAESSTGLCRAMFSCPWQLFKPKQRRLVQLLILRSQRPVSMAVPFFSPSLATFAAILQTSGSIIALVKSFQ
T1 sequence (Q9VNB5 1-486 partner): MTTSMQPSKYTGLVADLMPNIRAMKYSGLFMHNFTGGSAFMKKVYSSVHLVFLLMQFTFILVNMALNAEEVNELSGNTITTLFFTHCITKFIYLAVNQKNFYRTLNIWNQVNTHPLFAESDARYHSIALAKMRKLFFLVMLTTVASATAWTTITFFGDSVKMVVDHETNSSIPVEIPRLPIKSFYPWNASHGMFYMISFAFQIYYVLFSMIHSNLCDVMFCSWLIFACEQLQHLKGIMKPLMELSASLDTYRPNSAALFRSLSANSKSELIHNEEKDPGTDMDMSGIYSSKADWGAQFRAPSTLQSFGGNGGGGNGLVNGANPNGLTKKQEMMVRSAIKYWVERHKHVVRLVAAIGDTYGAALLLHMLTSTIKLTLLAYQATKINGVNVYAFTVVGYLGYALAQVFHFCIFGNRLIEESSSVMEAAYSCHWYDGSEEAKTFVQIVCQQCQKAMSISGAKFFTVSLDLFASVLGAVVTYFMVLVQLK
Put plainly: Calcium ion fluorescence (GCaMP6) assay, OR10a stable HEK293 cell line. The arrangement: key to DF norm AVERAGE OR10a: VOC ∆F divided by the plate's mean ∆F response to 50 µM VUAA1. Format: cell-based. As to conditions: for DF norm AVERAGE OR10a: threshold 0.05, below shown as 0. An outline of the steps: (§1)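 Responses are VUAA1-normalized ΔF: each VOC-evoked calcium signal, (FMAX−F0)/F0 over 30 s after injection, divided by the same line's mean 50 µM VUAA1 response. Cells were doxycycline-induced HEK293 with GCaMP6 and the cognate Drosophila OR, in HEPES buffer pH 7.3; ligands tested 0.01–100 μM.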

A further assay deals with T2, Drosophila OR47a (Drosophila melanogaster, UniProt P81921).
T2 construct: expressed in transfected cells
T2 sequence (P81921 1-385): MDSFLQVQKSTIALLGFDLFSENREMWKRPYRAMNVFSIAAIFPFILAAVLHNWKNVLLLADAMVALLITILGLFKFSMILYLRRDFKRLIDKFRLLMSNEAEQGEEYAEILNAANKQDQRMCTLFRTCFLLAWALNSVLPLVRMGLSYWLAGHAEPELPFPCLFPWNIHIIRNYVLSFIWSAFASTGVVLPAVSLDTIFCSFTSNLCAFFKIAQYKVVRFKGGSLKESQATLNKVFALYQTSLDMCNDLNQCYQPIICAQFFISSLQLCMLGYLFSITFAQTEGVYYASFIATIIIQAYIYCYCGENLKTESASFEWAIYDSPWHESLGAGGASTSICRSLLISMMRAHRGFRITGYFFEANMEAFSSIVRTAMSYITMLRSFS
T2 sequence (Q9VNB5 1-486 partner): T1 sequence (Q9VNB5 1-486 partner)
Put plainly: Calcium ion fluorescence (GCaMP6) assay, OR47a stable HEK293 cell line. The arrangement: key to DF norm AVERAGE OR47a: VOC ∆F divided by the plate's mean ∆F response to 50 µM VUAA1. Format: cell-based. Conditions: for Average response: mean of biological replicates; for DF norm AVERAGE OR47a: threshold 0.05, below shown as 0. The procedure, abridged: as §1

Where [1] appears, read: HEK293, 1 μM VOC, 50 μM VUAA1 = 1, responses not exceeding 0.05 considered 0, read-out: OR10a Average response (VUAA1-normalized).
[2] abbreviates: HEK293, 10 μM VOC, 50 μM VUAA1 = 1, responses not exceeding 0.05 considered 0, read-out: OR10a Average response (VUAA1-normalized).
The mark [3] stands for this setting: HEK293, 100 μM VOC, 50 μM VUAA1 = 1, responses not exceeding 0.05 considered 0, read-out: OR10a Average response (VUAA1-normalized).
[4] abbreviates: HEK293, read-out: OR10a response (VUAA1-normalized response), VOC concentration 1 μM.
[5] abbreviates: HEK293, read-out: OR10a response (VUAA1-normalized response), VOC concentration 10 μM.
Setting [6] is: HEK293, read-out: OR10a response (VUAA1-normalized response), VOC concentration 100 μM.
The mark [7] stands for this setting: ligand concentration 1 (unit not given).
The mark [8] stands for this setting: ligand concentration 10 (unit not given).
Where [9] appears, read: ligand concentration 100 (unit not given).
Where [10] appears, read: HEK293, read-out: OR47a response (VUAA1-normalized response).
[11] abbreviates: OR47a cell line, odorant cc. 1 µM.
[12] abbreviates: OR47a cell line, odorant cc. 10 µM.
[13] abbreviates: OR47a cell line, odorant cc. 100 µM.
[14] abbreviates: HEK293, read-out: OR47a Average response (VUAA1-normalized).
The mark [15] stands for this setting: HEK293, read-out: OR10a Average response (VUAA1-normalized).
Setting [16] is: HEK293, read-out: OR10a response (VUAA1-normalized response).

Where two headings read alike, the source gives them in different places.

For the molecule `CCCC(=O)OCC` [ethyl butyrate], the activation at 1 µM on Drosophila OR10a (setting [1]), on Drosophila OR10a (setting [4]) and at Drosophila OR47a (setting [10]) was 0% throughout. In addition, the activation at 10 µM on Drosophila OR10a (setting [2]) came out at 2.38%; on Drosophila OR10a (setting [5]), 0%; at Drosophila OR47a (setting [10]), 0%. In addition, the activation at 100 µM is 2.76% on Drosophila OR10a (setting [3]), 0% at Drosophila OR10a (setting [6]) and 0% at Drosophila OR47a (setting [10]). The “DF norm AVERAGE OR10a” value on Drosophila OR10a (setting [7]), on Drosophila OR10a (setting [8]) and at Drosophila OR10a (setting [9]) was 0 throughout. The Average response on Drosophila OR47a (setting [11]) was found to be 0.00; at Drosophila OR47a (setting [12]) it was 0.00; at Drosophila OR47a (setting [13]) it was 0.0448. In addition, the “DF norm AVERAGE OR47a” value on Drosophila OR47a (setting [7]), at Drosophila OR47a (setting [8]) and on Drosophila OR47a (setting [9]) was 0 in each case.
Take `CCCCCC(=O)OCC` [ethyl hexanoate]: the activation at 1 µM at Drosophila OR10a (setting [1]) was found to be 6%; at Drosophila OR10a (setting [4]), 6%; on Drosophila OR47a (setting [14]), 7%; on Drosophila OR47a (setting [10]), 6.62%. Besides, the activation at 10 µM worked out at 3% on Drosophila OR10a (setting [2]), 0% on Drosophila OR10a (setting [5]), 26% at Drosophila OR47a (setting [14]) and 26% at Drosophila OR47a (setting [10]). The activation at 100 µM on Drosophila OR10a (setting [3]) was determined as 8.51%; on Drosophila OR10a (setting [6]), 8.51%; on Drosophila OR47a (setting [14]) it was 67%; on Drosophila OR47a (setting [10]), 67%. For the same molecule, the “DF norm AVERAGE OR10a” value was found to be 0.06289 at Drosophila OR10a (setting [7]), 0 at Drosophila OR10a (setting [8]) and 0.08508 on Drosophila OR10a (setting [9]). The figures for the Average response at Drosophila OR47a (setting [11]), at Drosophila OR47a (setting [12]) and at Drosophila OR47a (setting [13]) were 0.0662, 0.26 and 0.67, respectively. For the same molecule, the entries for the “DF norm AVERAGE OR47a” value on Drosophila OR47a (setting [7]), at Drosophila OR47a (setting [8]) and at Drosophila OR47a (setting [9]) were 0.06617, 0.2596 and 0.6687, respectively.
For `CC/C=C\CCO` [E-3-hexenol], the figures for the “OR10a response (VUAA1-normalized response)” value on Drosophila OR10a (VOC concentration 1 μM), at Drosophila OR10a (VOC concentration 10 μM) and on Drosophila OR10a (VOC concentration 100 μM) were 0.00, 0.00 and 0.074, respectively. The figures for the “OR47a response (VUAA1-normalized response)” value on Drosophila OR47a (VOC concentration 1 μM), at Drosophila OR47a (VOC concentration 10 μM) and at Drosophila OR47a (VOC concentration 100 μM) were 0.06, 0.00 and 0.14, respectively.
`CCc1ccccc1` [ethylbenzene]: the activation at 1 µM at Drosophila OR10a (setting [15]) turned out to be 17%; at Drosophila OR10a (setting [16]), 17%; at Drosophila OR47a (setting [10]), 0%. Further, the activation at 10 µM on Drosophila OR10a (setting [15]) was 3.3%; on Drosophila OR10a (setting [16]), 0%; on Drosophila OR47a (setting [10]) it was 0%. The activation at 100 µM on Drosophila OR10a (setting [15]) was 6%; at Drosophila OR10a (setting [16]), 6%; at Drosophila OR47a (setting [10]), 0%. The figures for the “DF norm AVERAGE OR10a” value on Drosophila OR10a (setting [7]), on Drosophila OR10a (setting [8]) and at Drosophila OR10a (setting [9]) were 0.1713, 0 and 0.05742, respectively. Further, the Average response at Drosophila OR47a (setting [11]) stood at 0.0189; at Drosophila OR47a (setting [12]), 0.0233; at Drosophila OR47a (setting [13]) it was 0.00. Also, the “DF norm AVERAGE OR47a” value on Drosophila OR47a (setting [7]), on Drosophila OR47a (setting [8]) and at Drosophila OR47a (setting [9]) was 0 each time.
On to `CC1=CC[C@@H](C(C)(C)O)CC1` [alpha-terpineol], for which the activation at 1 µM on Drosophila OR10a (HEK293, read-out: OR10a Average response (VUAA1-normalized), 1 μM VOC, 50 μM VUAA1 = 1, responses not exceeding 0.05 considered 0) amounted to 3.64%; at Drosophila OR10a (setting [4]), 0%; on Drosophila OR47a (setting [10]), 0%. Further, the activation at 10 µM is 2.71% on Drosophila OR10a (HEK293, read-out: OR10a Average response (VUAA1-normalized), 10 μM VOC, 50 μM VUAA1 = 1, responses not exceeding 0.05 considered 0); 0% at Drosophila OR10a (setting [5]); 0% at Drosophila OR47a (setting [10]). Moreover, the activation at 100 µM at Drosophila OR10a (HEK293, read-out: OR10a Average response (VUAA1-normalized), 100 μM VOC, 50 μM VUAA1 = 1, responses not exceeding 0.05 considered 0) was 0%; on Drosophila OR10a (setting [6]) it was 0%; on Drosophila OR47a (setting [10]), 0%. Moreover, the “DF norm AVERAGE OR10a” value on Drosophila OR10a (setting [7]), on Drosophila OR10a (setting [8]) and on Drosophila OR10a (setting [9]) was 0 each time. For the same molecule, the Average response at Drosophila OR47a (setting [11]), on Drosophila OR47a (setting [12]) and on Drosophila OR47a (setting [13]) was 0.00 each time. Besides, the “DF norm AVERAGE OR47a” value on Drosophila OR47a (setting [7]), at Drosophila OR47a (setting [8]) and at Drosophila OR47a (setting [9]) was 0 throughout.
Consider `OCCc1ccccc1` [phenethyl alcohol], for which the activation at 1 µM on Drosophila OR10a (setting [1]) was determined as 3%. The activation at 10 µM on Drosophila OR10a (setting [2]) worked out at 6%. Also, at Drosophila OR10a (setting [3]), the activation at 100 µM was determined as 3%. Moreover, the “OR10a response (VUAA1-normalized) at 1 μM” value at Drosophila OR10a (OR10a cell line, VOC concentration 1 μM) amounted to 0.00. Moreover, the “OR10a response (VUAA1-normalized) at 10 μM” value at Drosophila OR10a (OR10a cell line, VOC concentration 10 μM) was found to be 0.06. Moreover, at Drosophila OR10a (OR10a cell line, VOC concentration 100 μM), the “OR10a response (VUAA1-normalized) at 100 μM” value amounted to 0.00. Moreover, the “DF norm AVERAGE OR10a” value on Drosophila OR10a (setting [7]) is on record as 0; on Drosophila OR10a (setting [8]), 0.05732; at Drosophila OR10a (setting [9]), 0. For the same molecule, the “OR47a response (VUAA1-normalized) at 1 μM” value at Drosophila OR47a (OR47a cell line, VOC concentration 1 μM) was 0.0564. The “OR47a response (VUAA1-normalized) at 10 μM” value on Drosophila OR47a (OR47a cell line, VOC concentration 10 μM) came to 0.0644. At Drosophila OR47a (OR47a cell line, VOC concentration 100 μM), the “OR47a response (VUAA1-normalized) at 100 μM” value is 0.057. The Average response came to 0.0564 on Drosophila OR47a (setting [11]), 0.0644 on Drosophila OR47a (setting [12]) and 0.057 on Drosophila OR47a (setting [13]). Further, the “DF norm AVERAGE OR47a” value at Drosophila OR47a (setting [7]) was 0.05643; on Drosophila OR47a (setting [8]), 0.06438; on Drosophila OR47a (setting [9]), 0.05701.
